Here are results for 16 molecules from PubChem BioAssay (NCI).

Among the test systems are CAKI-1 renal; COLO 205 colon; K-562 leukemia; MDA-MB-231 breast; NCI-H226 lung; RPMI-8226 leukemia; SR leukemia; TK-10 renal; UO-31 renal; OVCAR-4 ovarian.
Common to all, as to experiment: inhibition of tumour cell growth, NCI panel, 48 h

Structures are written as SMILES.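 A five-concentration, 48-hour dose response in 96-well plates underlies each endpoint, interpolated linearly between surrounding concentrations. TGI: total growth inhibition.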

In the case of `CC(C)OP(=O)(OC(C)C)C(C(C)C)N(C)/C(N)=N\C1=NC(C(F)(F)F)(C(F)(F)F)N=C(C(C(F)(F)F)C(F)(F)F)O1` (stereo unspecified), the TGI in the test with CAKI-1 renal worked out at 11.2 µM; in the test on COLO 205 colon it was 3.64 µM; in the test on K-562 leukemia, 5.11 µM; in the test on MDA-MB-231 breast, 4.33 µM; with NCI-H226 lung, 5.05 µM; with RPMI-8226 leukemia, 7.45 µM. In addition, the TGI came to 14.2 µM in the test on SR leukemia, 13.6 µM in the test with TK-10 renal and 16 µM in the test with UO-31 renal.

Consider `COc1cc2c(cc1OC)-c1[nH]c3ccc(C#N)cc3c1CC(=O)N2`, for which the TGI in the test on CAKI-1 renal was over 100 µM; with COLO 205 colon it was 10.6 µM; in the test with MDA-MB-231 breast, over 100 µM; in the test on NCI-H226 lung, over 100 µM; with OVCAR-4 ovarian, over 100 µM; in the test with TK-10 renal, over 100 µM. In the test with UO-31 renal, the TGI is over 22.6 µM.

Turning to `COC(=O)[C@H](Cc1ccccc1)NC(=O)NCCN(CCNC(=O)N[C@@H](Cc1ccccc1)C(=O)OC)C(=O)N[C@@H](Cc1ccccc1)C(=O)OC`, the TGI was over 63.6 µM in the test with CAKI-1 renal; 40.9 µM in the test on COLO 205 colon; 61 µM with K-562 leukemia; 46.5 µM with MDA-MB-231 breast; 34.6 µM in the test on NCI-H226 lung; 30 µM in the test on OVCAR-4 ovarian. Besides, the TGI came to 46.3 µM with RPMI-8226 leukemia, 37.3 µM in the test with TK-10 renal and 45.5 µM in the test on UO-31 renal.

`CC1C2CC(CC(=O)N2)C1(C)C` (stereo unspecified): the TGI in the test with CAKI-1 renal, in the test on COLO 205 colon, in the test on K-562 leukemia, in the test with MDA-MB-231 breast, with NCI-H226 lung and in the test on OVCAR-4 ovarian was over 100 µM in each case. Moreover, the TGI with TK-10 renal and in the test with UO-31 renal was over 100 µM each time.

As for `CCc1nnc(CC)n1NCCCC(=O)O`, the TGI in the test on COLO 205 colon, in the test on K-562 leukemia, with MDA-MB-231 breast, in the test on OVCAR-4 ovarian, with RPMI-8226 leukemia and with SR leukemia was over 100 µM throughout. In addition, the TGI in the test with TK-10 renal and with UO-31 renal was over 100 µM throughout.

For the molecule `CC(C)=CCOc1cc(NC(=S)c2ccoc2C)ccc1Cl`, the TGI in the test with CAKI-1 renal, in the test with COLO 205 colon, in the test on MDA-MB-231 breast, in the test on NCI-H226 lung, in the test with OVCAR-4 ovarian and in the test with RPMI-8226 leukemia was over 100 µM throughout. The TGI in the test with SR leukemia, in the test on TK-10 renal and with UO-31 renal was over 100 µM throughout.

In the case of `C=C(c1ccccc1)C1ON(C)CCc2cc(OC)c(OC)cc21` (stereo unspecified), the TGI in the test with CAKI-1 renal, in the test with COLO 205 colon, in the test on K-562 leukemia, in the test on MDA-MB-231 breast, with NCI-H226 lung and in the test with RPMI-8226 leukemia was over 100 µM each time. Moreover, the TGI in the test with SR leukemia, in the test with TK-10 renal and in the test on UO-31 renal was over 100 µM in each case.

For the molecule `COc1cc(Br)c(OC)c2c(OC)cc(C)cc12`, the TGI in the test with COLO 205 colon was over 100 µM; in the test with K-562 leukemia, over 100 µM; in the test with MDA-MB-231 breast it was over 100 µM; in the test with NCI-H226 lung, over 100 µM; in the test with RPMI-8226 leukemia, over 100 µM; in the test on SR leukemia, 37.8 µM. The TGI in the test with TK-10 renal and in the test on UO-31 renal was over 100 µM each time.

As to `Nc1ccn(C2CC(O)C(COP(O)(=S)OC3CC(n4ccc(N)nc4=O)OC3CO)O2)c(=O)n1` (stereo unspecified), the TGI in the test with CAKI-1 renal, with COLO 205 colon, in the test with MDA-MB-231 breast, in the test with OVCAR-4 ovarian, in the test on RPMI-8226 leukemia and in the test on SR leukemia was over 100 µM each time. The TGI in the test with TK-10 renal and with UO-31 renal was over 100 µM each time.

Take `CCOC(=O)NC(C(F)(F)F)(C(F)(F)F)P(=O)(OC(C)C)OC(C)C`: the TGI in the test on COLO 205 colon, with K-562 leukemia, in the test on MDA-MB-231 breast, in the test on NCI-H226 lung, in the test on OVCAR-4 ovarian and in the test with RPMI-8226 leukemia was over 100 µM throughout. Also, the TGI in the test with SR leukemia, in the test on TK-10 renal and with UO-31 renal was over 100 µM throughout.

As for `O=C1c2cc3c(cc2CC12Cc1cc4c(cc1C2=O)CCCC4)CCCC3`, the TGI was over 100 µM in the test on COLO 205 colon; over 100 µM in the test with K-562 leukemia; 77.1 µM in the test with MDA-MB-231 breast; over 100 µM with NCI-H226 lung; 46.7 µM in the test with OVCAR-4 ovarian; over 100 µM in the test on RPMI-8226 leukemia. Also, the TGI in the test with SR leukemia was over 100 µM; in the test on TK-10 renal it was 75.8 µM; with UO-31 renal, over 100 µM.

Turning to `COC(=O)N1C[C@@]2(C=CC3(CC2)OCCO3)c2ccccc21`, the TGI in the test with CAKI-1 renal, in the test on COLO 205 colon, in the test with K-562 leukemia, in the test with MDA-MB-231 breast, with OVCAR-4 ovarian and in the test with RPMI-8226 leukemia was over 100 µM in each case. Besides, the TGI in the test with SR leukemia, in the test with TK-10 renal and with UO-31 renal was over 100 µM each time.

Turning to `Fc1c(F)c(C(F)(F)F)c(F)c(F)c1N/N=C\c1c[nH]c2ccccc12`, the TGI in the test with CAKI-1 renal is 8.14 µM; in the test on COLO 205 colon, 2.71 µM; in the test with K-562 leukemia, 10.5 µM; with MDA-MB-231 breast, 12.7 µM; in the test on OVCAR-4 ovarian it was 6.72 µM; in the test on RPMI-8226 leukemia it was 10.2 µM. The TGI in the test on SR leukemia was 9.19 µM; in the test with TK-10 renal, 15.6 µM; with UO-31 renal it was 3.85 µM.

Take `COc1ccc(/C=C2\OC(=O)C(Cl)=C2c2ccc(OC)cc2)cc1`: the TGI with CAKI-1 renal, in the test with COLO 205 colon, with K-562 leukemia, in the test with MDA-MB-231 breast, in the test on OVCAR-4 ovarian and in the test on RPMI-8226 leukemia was over 100 µM throughout. Besides, the TGI with SR leukemia, in the test on TK-10 renal and with UO-31 renal was over 100 µM throughout.

Take `Cn1nc(Cc2ccc(Cl)cc2)n(N)c1=O`: the TGI in the test with CAKI-1 renal, with K-562 leukemia, in the test on MDA-MB-231 breast, in the test on NCI-H226 lung, in the test on RPMI-8226 leukemia and in the test with TK-10 renal was over 100 µM each time. This molecule returned a TGI in the test on UO-31 renal of over 100 µM.

In the case of `CC1(C)C(=O)N(O)C(C)(C)N1O`, the TGI in the test with CAKI-1 renal, in the test with COLO 205 colon, in the test on K-562 leukemia, with MDA-MB-231 breast, with NCI-H226 lung and in the test on OVCAR-4 ovarian was over 10 µM in each case. Also, the TGI in the test on RPMI-8226 leukemia, with SR leukemia and in the test on TK-10 renal was over 10 µM in each case.
